From patent US20050245465A1, “Compounds for treating Alzheimer's disease and for inhibiting beta-amyloid peptitde production” (priority 2004, published 2005)
Entries after “also recorded” stand apart in the source; their conditions may differ. Like-named read-outs stand apart in the source and are kept apart here.

Assays:
CHO-APP cells = assay: Mass spectrometric analysis of Aβ species from CHO-APP cells; type: cell-based, Chinese hamster; conditions: mass spectrometry, vs DMSO
Experimental: Note that treatment leads to a decrease in Aβ42 species (1-42), and elevation in both Aβ37 (1-37) and Aβ38 (1-38). Mass spectrometric analysis of Aβ species were performed as previously described (Wang R, Sweeny D, Gandy S E, Sisodia S S. The profile of soluble amyloid β-protein in cultured cell media. J. Bio. Chem. 1996; 271: 31894-31902).

CHO-APP/PS1 cells = assay: Secreted Aβ40/Aβ42 ELISA in CHO-APP/PS1 cells; type: cell-based, Chinese hamster; conditions: for Aβ42 levels: CHO cells co-expressing human APP with wild-type PS1 or FAD mutant PS1 (delta E9, L286V)
Experimental: (§1) FIG. 10 depicts the effects of native ginsenosides on Aβ42 production. CHO cells stably transfected with human APP695 together with either wild-type (A, CHO-APP/PS1 cells) or ΔE9 FAD mutant (B, CHO-APP/ΔE9PS1 cells) forms of PS1 were used. Cells were treated with the indicated compounds (at 50 μM) for 8 hrs. Levels of secreted Aβ40 and Aβ42 in the medium were determined by ELISA and normalized to intracellular full-length APP. In CHO-APP/PS1 cells, average Aβ amounts in control samples were 320 pM for Aβ40 and 79 pM for Aβ42. The relative levels of Aβ and Aβ42 were normalized to values obtained from non-treated and vehicle-treated cells and are shown as % to control+s.d.). One of three representative experiments are shown.
(§2) CHO-APP/PS1 (A) and CHO-APP/ΔE9PS1 (B) cells were treated with the indicated compounds at 50 μM for 8 hrs and the levels of secreted Aβ40 and Aβ42 were determined as described in FIG. 1. […] The PS1-ΔE9 FAD mutation diminished the Aβ42 response to Rk1 treatment (B).

CHO-APP/ΔE9PS1 cells = assay: Secreted Aβ40/Aβ42 ELISA in CHO-APP/ΔE9PS1 cells; type: cell-based, Chinese hamster; conditions: 50 μM, 8 hrs
Experimental: as §1, §2
Steaming ginseng at high temperature gave rise to additional ginsenosides with enhanced pharmacological activity, including (20S)Rg3, Rk1 and Rg5 (22-25). Next, the effects of these heat-processing derived ginsenosides (e.g., (20S)Rg3, Rh1, Rh2, Rk1, Rg6, Rg5) on Aβ40 and Aβ42 generation were tested. […] In contrast, Aβ42 levels were not affected by (20R)Rg3, Rh1, and Rg6. Aβ40 levels were not changed by treatment with any of the ginsenosides tested. The potency of Aβ42-lowering activity was highest with Rk1 and (20S)Rg3. […] The secretion of Aβ40 was affected by treatment with Rk1 only at very high concentration (˜100 μM) and cell viability was not affected by treatment of Rk1 under these conditions (up to 100 μM, 8 hour treatment; data not shown). […] Overnight treatment with Rgk351, Rk1, and Rg5 also reduce Aβ42 production in CHO-APP cells (FIG. 12B). […]

[1] = tested on: primary embryonic cortical neurons derived from Tg2576 transgenic mice; assay: Aβ40 and Aβ42 secretion in primary embryonic cortical neurons; type: cell-based
Text: Treatment of Rk1 and Rg3 decreased the level of secreted Aβ40 and Aβ42.

γ-secretase [2] = assay: Cell-free γ-secretase assay (CHAPSO-solubilized membrane fractions, Aβ ELISA); type: biochemical; conditions: for Aβ40 and Aβ42 generation in cell-free γ-secretase assay: dose-response
Experimental: (A) CHAPSO-solubilized membrane fractions were incubated with recombinant γ-secretase substrates together with the indicated compounds (at 100 μM) and the levels of Aβ42 and Aβ40 were determined by ELISA as described (27-29). (B) Dose-response of Aβ40 and Aβ42-lowering activity of Rk1 and (20S)Rg3 in a cell-free γ-secretase assay.
Next, the inhibitory effects of Rk1 and (20S)Rg3 on Aβ generation in an in vitro γ-secretase assay was studied. […] In contrast, naproxen, an NSAID without Aβ42-lowering activity, had no effects on Aβ42 production (FIG. 15A).

[3] = tested on: CHO cells expressing human APP; assay: Secreted Aβ40/Aβ42 ELISA in medium of CHO-APP cells; type: cell-based, Chinese hamster; parameters: key to Aβ42-lowering activity: Aβ42-lowering activity (“Yes”); no profound effects (“No”); non-determined (“ND”); Ginsenosides that affected cell viability are indicated as “Cytotoxic.”; conditions: for Aβ42-lowering activity: Tables 1-3; for secretion of Aβ42 (initial screening): heat-processing derived ginsenosides; for production of Aβ42 in cells (summary statement): mammalian cells, in vitro; for Aβ42 in the medium, dose-dependence: CHO cells expressing human APP; for generation of Aβ42 (Aβ42 levels in the medium, ELISA, normalized to intracellular full-length APP): CHO cells stably transfected with human APP695, 50 μg/ml, 8 hrs; for Aβ42 vs. Aβ40 in the medium (preference): normalized to non-treated and vehicle-treated cells
Experimental: The CHO cells were treated with the indicated compounds (at 50 μg/ml) for 8 hrs. Aβ42 levels in the medium were measured by ELISA and normalized to intracellular full-length APP.
The potential effects of ginsenosides and their analogues in treating AD were examined. First, a number of ginsenosides were screened based on their effects on Aβ generation. The effects of various ginsenosides on Aβ (e.g., Aβ40 and Aβ42) production was initially accessed by incubating the Chinese hamster ovary (CHO) cells expressing human APP(CHO-APP cells) with each ginsenoside purified from unprocessed ginseng (known as “white ginseng”). These representative ginsenosides included Rb1, Rb2, Rc, Rd, Re, Re, Rg1 and Rg2 and differ in their side chains and sugar moieties.
After 8 hours of incubation, the media were collected and the levels of secreted Aβ40 and Aβ42 were determined by ELISA.
Steaming ginseng at high temperature gave rise to additional ginsenosides with enhanced pharmacological activity, including (20S)Rg3, Rk1 and Rg5 (22-25). Next, the effects of these heat-processing derived ginsenosides (e.g., (20S)Rg3, Rh1, Rh2, Rk1, Rg6, Rg5) on Aβ40 and Aβ42 generation were tested. […] In contrast, Aβ42 levels were not affected by (20R)Rg3, Rh1, and Rg6. Aβ40 levels were not changed by treatment with any of the ginsenosides tested. The potency of Aβ42-lowering activity was highest with Rk1 and (20S)Rg3. […] The secretion of Aβ40 was affected by treatment with Rk1 only at very high concentration (˜100 μM) and cell viability was not affected by treatment of Rk1 under these conditions (up to 100 μM, 8 hour treatment; data not shown). […] Overnight treatment with Rgk351, Rk1, and Rg5 also reduce Aβ42 production in CHO-APP cells (FIG. 12B). […] These studies provide a structure-activity relationship between the chemical structures of ginsenosides and Aβ42-lowering activity, further providing the basis for designing additional Aβ42-lowering analogues as well as for defining a class of compounds that harbor Aβ42-lowering activity.

APP = assay: Western blot of APP processing in CHO-APP and Neuro2a-APPsw cells; type: cell-based, Chinese hamster and mouse; conditions: cell lysates; for APP C-terminal fragments (γ-secretase substrates): CHO-APP and Neuro2a APPsw cells
Text: FIG. 13. depicts an analysis of APP processing after Rk1 treatment. Steady-state levels of full-length APP and APP C-terminal fragments (APP-CTFs) were examined by Western blot analysis using anti-R1 antibody. […] Correlated Aβ42 levels for each sample are shown in the bottom panel.

CHO cells = assay: Cell viability of treated CHO cells; type: cell-based, Chinese hamster
Experimental: as §2
Tables 1-3 Structure of ginsenosides utilized in the study and their effects on Aβ42 generation. They differ at the two or three side chains attached to the common triterpene backbone known as dammarane. The common structure skeleton for each group of ginsenosides is shown in the top panel. Ginsenosides that harbor Aβ42-lowering activity are indicated in the far right column of the tables: Aβ42-lowering activity (“Yes”), no profound effects (“No”), and non-determined (“ND”). Ginsenosides that affected cell viability are indicated as “Cytotoxic.” Abbreviation for carbohydrates are as follows: Glc, D-glucopyranosyl; Ara (pyr), L-arabinopyranosyl; Ara (fur), L-arabinofuranyosyl; Rha, L-rhamnopyranosyl.
Steaming ginseng at high temperature gave rise to additional ginsenosides with enhanced pharmacological activity, including (20S)Rg3, Rk1 and Rg5 (22-25). Next, the effects of these heat-processing derived ginsenosides (e.g., (20S)Rg3, Rh1, Rh2, Rk1, Rg6, Rg5) on Aβ40 and Aβ42 generation were tested. […] In contrast, Aβ42 levels were not affected by (20R)Rg3, Rh1, and Rg6. […]

γ-secretase [4] = assay: Cell-free generation of intracellular domains (AICD, NICD, p75-ICD) in membrane fractions of 293 cells; type: biochemical; conditions: membrane fractions from 293 cells overexpressing APP, Notch-ΔE or p75-ΔE
Experimental: Membrane fractions isolated from 293 cells overexpressing either APP (A), Notch-ΔE (B) or p75-ΔE (C) and incubated in the presence of indicated compounds: Compound E (CpdE, general γ-secretase inhibitor), Rgk351, Rk1 and sulindac sulfide (SS).
Since the effect of Rk1 was rather selective to Aβ42 (but not Aβ40) in a cell-based assay, the question of whether Rk1 affects other γ-secretase-mediated cleavage events, including the generation of AICD resulted from a transmembrane cleavage of APP distal from either Aβ40 or Aβ42 site, and γ-secretase-mediated intramembrane cleavage of Notch1 or p75 neurotrophin receptor (p75NTR) to yield Notch1 or p75NTR intracellular domains (NICD or p75-ICD, respectively) was tested. The cell-free generation of AICD, NICD and p75-ICD was not affected by incubation with Rgk351 or Rk1 (FIG. 5).

[5] = cell-free γ-secretase assay, read-out: IC50 for Aβ40
[6] = cell-free γ-secretase assay, read-out: IC50 for Aβ42
[7] = overnight treatment, CHO-APP cells

Compound | Aβ37 (1-37) and Aβ38 (1-38) (CHO-APP cells) | Aβ42 species (1-42) (CHO-APP cells) | potency of Aβ42-reducing activity (order) (CHO-APP/PS1 cells; 50 μM, 8 hrs) | Aβ42-lowering response in PS1 ΔE9 FAD mutant cells vs PS1 wild-type cells (CHO-APP/ΔE9PS1 cells) | level of secreted Aβ40 and Aβ42 [1] | IC50 (γ-secretase [2]; [5]) [µM] | IC50 (γ-secretase [2]; [6]) [µM] | Aβ40 and Aβ42 generation in cell-free γ-secretase assay (γ-secretase [2]) | potency of Aβ42-lowering activity (comparison among ginsenosides) [3] | Aβ42-lowering activity [3] | secretion of Aβ42 (initial screening) [3] | production of Aβ42 in cells (summary statement) [3] | Aβ42 levels (CHO-APP/PS1 cells) | full-length APP levels (APP) | APP C-terminal fragments (γ-secretase substrates) (APP) | Aβ42 in the medium, dose-dependence [3] | generation of Aβ42 (Aβ42 levels in the medium, ELISA, normalized to intracellular full-length APP) [3] | Aβ42 vs. Aβ40 in the medium (preference) ([3]; CHO-APP cells) | Aβ42 production [3, 7] | also measured
CC(C)=CCC[C@](C)(O)[C@H]1CC[C@]2(C)[C@@H]1[C@H](O)C[C@@H]1[C@@]3(C)CC[C@H](O[C@@H]4O[C@H](CO)[C@@H](O)[C@H](O)[C@H]4O[C@@H]4O[C@H](CO)[C@@H](O)[C@H](O)[C@H]4O)C(C)(C)[C@@H]3CC[C@]12C [(20S)Rg3] | elevation | decrease | Rk1>/=(20S)Rg3>Rg5>(20R)Rg3 | diminished | decreased | 27 ± 4 | 26 ± 7 | inhibits; also recorded: inhibited both Aβ40 and Aβ42 with a similar potency | highest | Yes | selectively lowered | lower |  |  |  |  |  |  |  | 
CC(C)=CC/C=C(\C)[C@H]1CC[C@]2(C)[C@@H]1[C@H](O)C[C@@H]1[C@@]3(C)CC[C@H](O[C@@H]4O[C@H](CO)[C@@H](O)[C@H](O)[C@H]4O[C@@H]4O[C@H](CO)[C@@H](O)[C@H](O)[C@H]4O)C(C)(C)[C@@H]3CC[C@]12C [Rg5] |  |  | Rk1>/=(20S)Rg3>Rg5>(20R)Rg3 | diminished |  |  |  |  | much smaller as compared to Rgk351 and Rk1; also recorded: less effective | Yes | selectively lowered | lower | much smaller as compared to Rgk351 and Rk1 | not affected | increased accumulation | reduced; also recorded: lower Aβ42 in a dose-dependent manner | reduce | preferentially reduced Aβ42 (vs. Aβ40) | reduce | 
CC(C)=CCC[C@](C)(O)[C@H]1CC[C@]2(C)[C@@H]1[C@H](O)C[C@@H]1[C@@]3(C)CC[C@H](O[C@@H]4O[C@H](CO)[C@@H](O)[C@H](O)[C@H]4O)C(C)(C)[C@@H]3CC[C@]12C [Rh2] |  |  |  |  |  |  |  |  |  |  |  |  |  |  |  |  |  |  |  | Aβ42-lowering effects (CHO-APP/PS1 cells; 50 μM, 8 hrs): exhibited Aβ42-lowering effects; cell viability (CHO cells; 50 μM treatment): partially affected
C=C(CCC=C(C)C)[C@H]1CC[C@]2(C)[C@@H]1[C@H](O)C[C@@H]1[C@@]3(C)CC[C@H](O[C@@H]4O[C@H](CO)[C@@H](O)[C@H](O)[C@H]4O[C@@H]4O[C@H](CO)[C@@H](O)[C@H](O)[C@H]4O)C(C)(C)[C@@H]3CC[C@]12C [Rk1] | elevation | decrease | Rk1>/=(20S)Rg3>Rg5>(20R)Rg3 | diminished | decreased | 27 ± 3 | 32 ± 5 | inhibits; also recorded: inhibited both Aβ40 and Aβ42 with a similar potency | most effective; also recorded: highest | Yes | selectively lowered | lower | reduced | not affected; also recorded: did not affect | increased accumulation; also recorded: up-regulated | reduced; also recorded: lower Aβ42 in a dose-dependent manner | reduce | preferentially reduced Aβ42 (vs. Aβ40); also recorded: preferentially lowers Aβ42 (vs. Aβ40) | reduce | cell viability (CHO cells; up to 100 μM, 8 hour treatment): not affected; cell-free generation of AICD, NICD and p75-ICD (γ-secretase [4]): does not significantly affect; also recorded: not affected; Aβ42 generation in vitro (γ-secretase [2]; cell-free γ-secretase assay, partially purified γ-secretase complex, 100 μM): inhibit; also recorded: potently inhibited; concentration at which secretion of Aβ40 was affected ([3]; 8 hour treatment): ~100 µM; IC50 ([3]; CHO-APP cells, read-out: IC50 of Aβ42 lowering activity): ~20 µM; Aβ40 production [3, 7]: slightly affected
